We go through two molecules from ChEMBL document CHEMBL5696441 (Nat Chem Biol, 2011).

Assay [1] has as its target Bone morphogenetic protein receptor type-1A (Homo sapiens) (UniProt P36894). Nature of the assay: Inhibition of BMPR1A (unknown origin) assessed as remaining activity at 1 uM by Kinome scan method relative to control.
In assay [2] the target is Cyclin-dependent kinase 11A (Homo sapiens) (UniProt Q9UQ88). Nature of the assay: Inhibition of CDC2L2 (unknown origin) assessed as remaining activity at 1 uM by Kinome scan method relative to control.
Assay [3] concerns the target Casein kinase I isoform gamma-1 (Homo sapiens) (UniProt Q9HCP0). Nature of the assay: Inhibition of CSNK1G1 (unknown origin) assessed as remaining activity at 1 uM by Kinome scan method relative to control.
In assay [4] the target is Homeodomain-interacting protein kinase 3 (Homo sapiens) (UniProt Q9H422). Nature of the assay: Inhibition of HIPK3 (unknown origin) assessed as remaining activity at 1 uM by Kinome scan method relative to control.
The target of assay [5] is Interleukin-1 receptor-associated kinase 1 (Homo sapiens) (UniProt P51617). Nature of the assay: Inhibition of IRAK1 (unknown origin) assessed as remaining activity at 1 uM by Kinome scan method relative to control.
Assay [6] deals with LIM domain kinase 1 (Homo sapiens) (UniProt P53667). Nature of the assay: Inhibition of LIMK1 (unknown origin) assessed as remaining activity at 1 uM by Kinome scan method relative to control.
Assay [7] has as its target Serine/threonine-protein kinase MRCK beta (Homo sapiens) (UniProt Q9Y5S2). Nature of the assay: Inhibition of MRCKB (unknown origin) assessed as remaining activity at 1 uM by Kinome scan method relative to control.
The target of assay [8] is T1, Mitogen-activated protein kinase 12 (Homo sapiens) (UniProt P53778).
T1 sequence (whole entry): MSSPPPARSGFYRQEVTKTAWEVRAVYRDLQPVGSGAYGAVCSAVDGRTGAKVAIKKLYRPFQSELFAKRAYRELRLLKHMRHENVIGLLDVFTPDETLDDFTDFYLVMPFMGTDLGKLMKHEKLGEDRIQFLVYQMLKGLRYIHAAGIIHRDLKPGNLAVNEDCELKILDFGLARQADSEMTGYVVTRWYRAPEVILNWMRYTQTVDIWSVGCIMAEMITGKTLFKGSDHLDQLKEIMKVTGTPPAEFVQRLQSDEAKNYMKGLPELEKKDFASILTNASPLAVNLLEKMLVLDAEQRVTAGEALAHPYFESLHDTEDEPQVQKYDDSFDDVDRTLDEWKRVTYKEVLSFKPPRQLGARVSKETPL
Put plainly: Inhibition of P38gamma (unknown origin) assessed as remaining activity at 1 uM by Kinome scan method relative to control.

Assay [9] relates to Phosphatidylinositol 4,5-bisphosphate 3-kinase catalytic subunit alpha isoform (Homo sapiens), P42336 [H1047L]. Nature of the assay: Inhibition of PIK3CA H1047L mutant (unknown origin) assessed as remaining activity at 1 uM by Kinome scan method relative to control.
The target of assay [10] is Serine/threonine-protein kinase PLK1 (Homo sapiens) (UniProt P53350). Nature of the assay: Inhibition of PLK1 (unknown origin) assessed as remaining activity at 1 uM by Kinome scan method relative to control.
For assay [11], the target named is T2, Serine/threonine-protein kinase PLK4 (Homo sapiens) (UniProt O00444).
T2 sequence (whole entry): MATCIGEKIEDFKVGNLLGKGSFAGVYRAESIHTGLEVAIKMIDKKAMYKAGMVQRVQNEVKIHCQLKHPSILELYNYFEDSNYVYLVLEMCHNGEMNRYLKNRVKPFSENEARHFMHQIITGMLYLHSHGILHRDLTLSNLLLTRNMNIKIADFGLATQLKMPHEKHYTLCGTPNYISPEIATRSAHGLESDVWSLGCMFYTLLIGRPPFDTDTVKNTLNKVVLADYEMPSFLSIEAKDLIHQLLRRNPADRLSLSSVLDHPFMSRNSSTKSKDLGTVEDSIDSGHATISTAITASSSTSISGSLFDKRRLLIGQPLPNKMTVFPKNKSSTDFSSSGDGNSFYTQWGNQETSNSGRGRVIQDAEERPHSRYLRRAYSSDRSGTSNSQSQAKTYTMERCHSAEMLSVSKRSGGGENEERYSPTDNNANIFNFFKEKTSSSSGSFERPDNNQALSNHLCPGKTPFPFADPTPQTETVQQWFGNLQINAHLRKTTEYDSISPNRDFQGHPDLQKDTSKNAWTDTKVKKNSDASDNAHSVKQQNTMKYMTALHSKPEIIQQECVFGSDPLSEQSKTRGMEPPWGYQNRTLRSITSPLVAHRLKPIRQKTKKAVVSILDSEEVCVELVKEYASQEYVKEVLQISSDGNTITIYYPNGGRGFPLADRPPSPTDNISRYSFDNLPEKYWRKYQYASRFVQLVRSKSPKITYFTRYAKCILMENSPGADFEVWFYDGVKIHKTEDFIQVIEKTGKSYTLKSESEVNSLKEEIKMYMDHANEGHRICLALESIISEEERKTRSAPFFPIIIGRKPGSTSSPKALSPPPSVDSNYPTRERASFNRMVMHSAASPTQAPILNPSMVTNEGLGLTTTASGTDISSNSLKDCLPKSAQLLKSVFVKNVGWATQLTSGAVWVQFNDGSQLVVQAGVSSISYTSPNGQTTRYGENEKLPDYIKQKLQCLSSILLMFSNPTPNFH
Put plainly: Inhibition of PLK4 (unknown origin) assessed as remaining activity at 1 uM by Kinome scan method relative to control.

Assay [12] concerns the target Ribosomal protein S6 kinase alpha-4 (Homo sapiens) (UniProt O75676). Put plainly: Inhibition of C-terminal kinase domain RPS6KA4 (unknown origin) assessed as remaining activity at 1 uM by Kinome scan method relative to control.
In assay [13] the target is Tyrosine-protein kinase receptor Tie-1 (Homo sapiens) (UniProt P35590). Nature of the assay: Inhibition of TIE1 (unknown origin) assessed as remaining activity at 1 uM by Kinome scan method relative to control.
For assay [14], the target named is Mitogen-activated protein kinase kinase kinase 20 (Homo sapiens) (UniProt Q9NYL2). Put plainly: Inhibition of ZAK (unknown origin) assessed as remaining activity at 1 uM by Kinome scan method relative to control.

SMILES strings stand for the structures.

Chain of Serine/threonine-protein kinase PLK1 (Homo sapiens) (P53350 whole entry): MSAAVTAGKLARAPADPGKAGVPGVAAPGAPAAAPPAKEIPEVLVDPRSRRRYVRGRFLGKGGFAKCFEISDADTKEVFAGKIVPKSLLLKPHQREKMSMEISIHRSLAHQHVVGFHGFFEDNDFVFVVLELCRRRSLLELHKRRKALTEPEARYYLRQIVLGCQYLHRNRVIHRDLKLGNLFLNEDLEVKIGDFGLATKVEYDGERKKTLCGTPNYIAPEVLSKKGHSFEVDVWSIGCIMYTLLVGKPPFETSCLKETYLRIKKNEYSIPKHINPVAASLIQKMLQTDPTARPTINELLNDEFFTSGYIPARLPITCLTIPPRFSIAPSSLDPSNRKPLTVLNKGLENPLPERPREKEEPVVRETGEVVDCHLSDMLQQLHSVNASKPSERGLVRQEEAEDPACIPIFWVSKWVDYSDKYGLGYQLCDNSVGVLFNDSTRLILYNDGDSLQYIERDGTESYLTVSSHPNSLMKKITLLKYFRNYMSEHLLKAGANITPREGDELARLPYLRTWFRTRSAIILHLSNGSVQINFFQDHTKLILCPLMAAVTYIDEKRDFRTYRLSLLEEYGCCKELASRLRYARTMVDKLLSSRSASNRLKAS
Chain of Cyclin-dependent kinase 11A (Homo sapiens) (Q9UQ88 whole entry, canonical isoform): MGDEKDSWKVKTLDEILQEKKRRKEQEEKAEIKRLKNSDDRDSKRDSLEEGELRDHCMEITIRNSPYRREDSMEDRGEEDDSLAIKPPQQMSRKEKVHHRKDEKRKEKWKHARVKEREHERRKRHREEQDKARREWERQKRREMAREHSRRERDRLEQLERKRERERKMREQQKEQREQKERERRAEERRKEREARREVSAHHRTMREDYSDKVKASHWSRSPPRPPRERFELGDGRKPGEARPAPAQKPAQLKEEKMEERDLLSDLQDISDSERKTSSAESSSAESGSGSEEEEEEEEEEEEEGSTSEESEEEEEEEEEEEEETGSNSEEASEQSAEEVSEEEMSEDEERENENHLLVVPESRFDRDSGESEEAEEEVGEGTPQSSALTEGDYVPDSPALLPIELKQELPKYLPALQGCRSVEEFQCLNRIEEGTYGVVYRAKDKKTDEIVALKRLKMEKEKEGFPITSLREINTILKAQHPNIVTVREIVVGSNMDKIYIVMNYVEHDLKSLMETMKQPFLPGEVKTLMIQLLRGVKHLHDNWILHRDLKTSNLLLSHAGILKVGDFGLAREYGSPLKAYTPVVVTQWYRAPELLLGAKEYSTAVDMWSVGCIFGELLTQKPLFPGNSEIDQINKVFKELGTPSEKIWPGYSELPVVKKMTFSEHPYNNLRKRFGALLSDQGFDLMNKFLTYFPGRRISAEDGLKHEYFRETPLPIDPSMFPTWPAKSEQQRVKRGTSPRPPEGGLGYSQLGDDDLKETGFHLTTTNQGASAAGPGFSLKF
Chain of Bone morphogenetic protein receptor type-1A (Homo sapiens) (P36894 whole entry): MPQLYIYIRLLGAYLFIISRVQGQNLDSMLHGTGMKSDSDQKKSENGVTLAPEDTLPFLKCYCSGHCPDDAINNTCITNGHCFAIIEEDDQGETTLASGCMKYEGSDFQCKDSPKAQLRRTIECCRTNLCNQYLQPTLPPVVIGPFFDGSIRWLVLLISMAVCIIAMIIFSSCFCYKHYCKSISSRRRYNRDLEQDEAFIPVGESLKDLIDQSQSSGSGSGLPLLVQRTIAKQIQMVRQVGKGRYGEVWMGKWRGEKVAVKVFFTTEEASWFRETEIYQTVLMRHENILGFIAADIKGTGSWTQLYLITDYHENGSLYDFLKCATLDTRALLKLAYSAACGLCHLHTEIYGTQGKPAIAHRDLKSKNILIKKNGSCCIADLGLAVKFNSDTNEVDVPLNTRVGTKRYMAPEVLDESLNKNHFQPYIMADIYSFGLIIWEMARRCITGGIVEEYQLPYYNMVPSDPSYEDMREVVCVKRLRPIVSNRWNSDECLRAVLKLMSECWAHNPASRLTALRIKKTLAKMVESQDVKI
Chain of Phosphatidylinositol 4,5-bisphosphate 3-kinase catalytic subunit alpha isoform (Homo sapiens), P42336 [H1047L] (P42336 whole entry H1047L, canonical isoform): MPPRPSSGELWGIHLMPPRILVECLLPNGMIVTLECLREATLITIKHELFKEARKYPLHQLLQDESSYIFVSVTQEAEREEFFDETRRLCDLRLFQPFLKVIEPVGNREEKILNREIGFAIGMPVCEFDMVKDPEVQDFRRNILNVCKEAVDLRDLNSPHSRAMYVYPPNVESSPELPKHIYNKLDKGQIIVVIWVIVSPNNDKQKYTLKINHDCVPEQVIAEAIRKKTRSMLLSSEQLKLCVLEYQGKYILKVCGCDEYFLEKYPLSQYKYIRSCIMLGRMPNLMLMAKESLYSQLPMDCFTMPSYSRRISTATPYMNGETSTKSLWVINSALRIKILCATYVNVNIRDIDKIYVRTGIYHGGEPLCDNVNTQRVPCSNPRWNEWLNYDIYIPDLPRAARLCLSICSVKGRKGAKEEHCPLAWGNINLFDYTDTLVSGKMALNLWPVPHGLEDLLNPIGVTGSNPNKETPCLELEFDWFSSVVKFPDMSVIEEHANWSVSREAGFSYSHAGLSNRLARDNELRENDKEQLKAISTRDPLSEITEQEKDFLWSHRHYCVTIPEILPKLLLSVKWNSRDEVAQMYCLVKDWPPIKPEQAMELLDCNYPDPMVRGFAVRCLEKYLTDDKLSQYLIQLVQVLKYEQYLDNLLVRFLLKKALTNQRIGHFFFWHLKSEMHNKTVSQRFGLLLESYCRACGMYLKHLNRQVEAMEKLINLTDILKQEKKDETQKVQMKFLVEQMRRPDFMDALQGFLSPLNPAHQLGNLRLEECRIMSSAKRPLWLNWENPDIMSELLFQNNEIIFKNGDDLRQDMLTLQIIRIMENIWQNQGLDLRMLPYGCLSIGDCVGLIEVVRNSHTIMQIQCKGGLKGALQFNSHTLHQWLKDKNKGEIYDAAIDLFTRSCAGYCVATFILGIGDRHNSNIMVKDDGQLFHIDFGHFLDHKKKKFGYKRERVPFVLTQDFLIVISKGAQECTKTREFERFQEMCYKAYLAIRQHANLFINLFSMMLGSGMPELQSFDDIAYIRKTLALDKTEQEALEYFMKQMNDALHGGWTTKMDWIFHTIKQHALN
Chain of LIM domain kinase 1 (Homo sapiens) (P53667 whole entry, looked up, the tested form may be a part): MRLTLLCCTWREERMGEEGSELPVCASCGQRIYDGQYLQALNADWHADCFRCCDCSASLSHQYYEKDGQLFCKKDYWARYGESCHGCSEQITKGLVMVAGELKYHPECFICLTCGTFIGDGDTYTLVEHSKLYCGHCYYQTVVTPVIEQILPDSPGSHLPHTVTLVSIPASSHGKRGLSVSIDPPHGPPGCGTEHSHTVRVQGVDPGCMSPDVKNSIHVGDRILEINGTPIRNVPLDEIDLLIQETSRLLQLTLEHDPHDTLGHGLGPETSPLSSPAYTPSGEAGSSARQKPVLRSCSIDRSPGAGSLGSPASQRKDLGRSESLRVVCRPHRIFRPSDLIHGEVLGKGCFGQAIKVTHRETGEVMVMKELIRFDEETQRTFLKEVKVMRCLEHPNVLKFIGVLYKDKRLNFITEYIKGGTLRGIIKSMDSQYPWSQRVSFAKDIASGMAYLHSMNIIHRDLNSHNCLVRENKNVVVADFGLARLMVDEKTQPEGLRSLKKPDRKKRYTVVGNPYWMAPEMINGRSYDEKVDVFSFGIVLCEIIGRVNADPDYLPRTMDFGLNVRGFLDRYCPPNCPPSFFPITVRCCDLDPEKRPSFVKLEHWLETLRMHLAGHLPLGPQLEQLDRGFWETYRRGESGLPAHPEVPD
Chain of Casein kinase I isoform gamma-1 (Homo sapiens) (Q9HCP0 whole entry, looked up, canonical isoform): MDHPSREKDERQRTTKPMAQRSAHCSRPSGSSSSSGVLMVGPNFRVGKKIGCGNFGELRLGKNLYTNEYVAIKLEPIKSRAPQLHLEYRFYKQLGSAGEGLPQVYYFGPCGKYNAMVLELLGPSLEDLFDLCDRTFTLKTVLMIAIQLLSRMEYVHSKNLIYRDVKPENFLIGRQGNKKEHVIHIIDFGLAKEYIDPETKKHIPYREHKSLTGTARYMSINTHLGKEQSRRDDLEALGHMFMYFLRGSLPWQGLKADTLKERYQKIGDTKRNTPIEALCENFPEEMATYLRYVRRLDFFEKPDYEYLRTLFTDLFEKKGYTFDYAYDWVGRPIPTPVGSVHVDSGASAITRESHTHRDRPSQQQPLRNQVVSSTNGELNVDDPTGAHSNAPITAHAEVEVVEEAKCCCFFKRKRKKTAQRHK
Chain of Interleukin-1 receptor-associated kinase 1 (Homo sapiens) (P51617 whole entry, looked up, the tested form may be a part): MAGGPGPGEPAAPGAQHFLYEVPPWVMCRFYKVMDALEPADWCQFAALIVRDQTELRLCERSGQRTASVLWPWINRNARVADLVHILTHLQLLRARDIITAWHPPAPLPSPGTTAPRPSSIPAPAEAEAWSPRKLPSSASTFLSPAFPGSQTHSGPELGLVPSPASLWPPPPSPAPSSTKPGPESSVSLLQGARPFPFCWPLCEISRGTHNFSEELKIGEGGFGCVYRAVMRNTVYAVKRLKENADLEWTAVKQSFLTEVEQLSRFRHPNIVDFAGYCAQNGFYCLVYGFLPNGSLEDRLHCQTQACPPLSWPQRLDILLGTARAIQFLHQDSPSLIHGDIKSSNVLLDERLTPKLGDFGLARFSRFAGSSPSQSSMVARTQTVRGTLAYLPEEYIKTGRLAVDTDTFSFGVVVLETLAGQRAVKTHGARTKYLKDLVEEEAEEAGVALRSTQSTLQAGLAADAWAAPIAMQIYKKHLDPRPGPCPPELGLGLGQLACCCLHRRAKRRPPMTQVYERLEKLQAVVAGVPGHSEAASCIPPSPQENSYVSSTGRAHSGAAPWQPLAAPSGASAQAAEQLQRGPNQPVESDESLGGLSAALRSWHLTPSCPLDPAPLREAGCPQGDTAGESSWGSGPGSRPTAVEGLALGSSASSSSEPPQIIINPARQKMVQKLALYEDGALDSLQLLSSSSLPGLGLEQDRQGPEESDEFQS

For the molecule `Nc1ccccc1Nc1ccc2c(c1)CCc1ccccc1C2=O`, the Activity in assay [1] was 98%; in assay [2], 92%; in assay [3], 79%; in [4], 64%; in [5], 75%; in [6], 96%. The Activity in [7] amounted to 71%; in assay [8] it was 98%; in assay [9] it was 84%; in assay [10] it was 93%; in [11], 98%; in assay [12] it was 85%. The Activity in assay [13] was 96%; in assay [14], 85%.
As to `O=C1c2ccc(Nc3ccc(F)cc3F)cc2CCc2ccc(OC[C@H](O)CO)cc21` [Skepinone-L], the Activity in [1] is 100%; in assay [2], 93%; in assay [3], 90%; in [4], 67%; in [5], 100%; in assay [6] it was 86%. For the same molecule, the Activity in assay [7] is 97%; in [8] it was 88%; in [9], 95%; in [10], 88%; in [11], 97%; in assay [12], 100%. Also, the Activity stood at 100% in [13] and 98% in assay [14].
